Assay results taken from patent US7521057B2, “Lamprey GnRH-III polypeptides and methods of making thereof” (University of New Hampshire, priority 2002, dated 2009).
Like-named read-outs stand apart in the source and are kept apart here. [ ]: non-standard residue; d: D form. pGlu = O=C1CC[C@@H](C(=O)O)N1

Experiments:
[1] = tested on: adult male and female sea lamprey; details: compared to controls, cited from earlier work; for spawning behavior: experiment 2, females
[2] = Plasma GnRHa after injection of sustained-release microspheres or implants in lampreys; assay type: in vivo, sea lamprey
Method: Thus, experiments were conducted to determine the optimal injection site and delivery agent that would best ensure a slow, constant release of the active compound, in this case, D-Ala^6 Pro^9Net mammal GnRH (GnRHa) over a period of four weeks. In the plasma, GnRH is easily degraded by protolytic enzymes. Therefore a simple injection will not elevate plasma GnRH levels for the duration of time required to ensure the appropriate reproductive effect. If a GnRH analog were used to sterilize wild fish, the method would have to maintain high levels of GnRH in the plasma for the length of the spawning season, or about 6 weeks in the case of sea lamprey in the Great Lakes. It was believed that controlled release of GnRH could be attained by injection of biodegradable microspheres or implants containing a GnRH analog, and experiments were performed to determine if high enough GnRH levels could be maintained for the required duration using such a method.
In Applicant's experiments microspheres (in a dose of 75 ug GnRHa/lamprey) and 2 mm implants were injected either intramuscularly (IM) or intraperitoneally (IP). At week 1, plasma GnRHa was detected in two-thirds of the lampreys injected IP, either with microspheres (5.0+/−1.3 ng/ml) or implants (1.6+/−0.3 ng/ml).
Only the lampreys injected IM with microspheres still had detectable levels of GnRHa after 3 weeks (2.9+/−1.5 ng/ml). Based on the results of these experiments, the best method of sustained release of GnRHa was determined to be via IM injection using microspheres.

type-I GnRH-binding site = assay: Competition binding in pituitary of male sea lampreys, type-I GnRH binding site; design: species or system P. marinus; details: for Ki: pituitary of adult male land-locked P. marinus, tracer iodinated [DAla6, Pro9Net]-mammalian GnRH, K1 from IC50
Method: (§1) In another study, the binding affinity in the pituitary of male sea lampreys was determined with lamprey GnRH-I and -III analogs in an effort to better understand the structure-activity relations of the lamprey GnRH molecule (Mateme and Sower, unpublished). Competition studies were performed using the iodinated DAla^6, Pro^9Net]-mammalian GnRH as the tracer with each of the following analogs: [D-Phe^2, Gly^6]-lGnRH-I (Peninsula Labs, Cali.); and the following lGnRH-III analogs: [D-Phe^2,6, Pro^3], [D-Phe^2, Gly^6], and [Ac-Delta-3Pro, 4FDPhe^2-D-Trp^3,6] from American Peptide, Cali. […] The level of significance was P<0.0001 See TABLE 5 for the results of these experiments. The results shown in Table 5 summarize experiments using various analogs.
(§2) Inhibition constants (K1) of lamprey GnRH-putative antagonists in the pituitary of adult male land-locked P. marinus. […] The data were plotted on a logit-log plot and the K1 determined from the IC50 using the Prism software.

adult sea lampreys = details: cited from earlier work; for plasma estradiol: adult female lampreys, injections; for ovulation / timing of ovulation: female lampreys; for gametogenesis: male and female sea lampreys, previous studies
[3] = molecular target: type-II GnRH binding site; assay: Competition binding in pituitary of male sea lampreys, type-II GnRH binding site; design: species or system P. marinus; details: for Ki: pituitary of adult male land-locked P. marinus, tracer iodinated [DAla6, Pro9Net]-mammalian GnRH, K1 from IC50
Method: as §1, §2

[4] = pituitary of male sea lampreys, in words

Compound	spawning behavior [1]	spawning activity ([1]; experiment 2, males)	spawning activity ([1]; experiment 3, males)	Ki (type-I GnRH-binding site) [nM]	plasma estradiol (adult sea lampreys)	ovulation / timing of ovulation (adult sea lampreys)	Ki [3] [nM]	gametogenesis (adult sea lampreys)	also measured
[D-Ala^6, Pro^9 Net lamprey GnRH] [lamprey GnRH agonist]	inhibited	stimulated earlier spawning activity	inhibited spawning activity						
CCNC(=O)[C@@H]1CCCN1C(=O)[C@H](CCCNC(=N)N)NC(=O)[C@H](CC(C)C)NC(=O)[C@@H](C)NC(=O)[C@H](Cc1ccc(O)cc1)NC(=O)[C@H](CO)NC(=O)[C@H](Cc1c[nH]c2ccccc12)NC(=O)[C@H](Cc1c[nH]cn1)NC(=O)[C@@H]1CCC(=O)N1 [[DAla^6, Pro^9Net]-m GnRH, [DAla^6, Pro^9Net]-mammalian GnRH]				0.00311	significantly elevated	advanced ovulation by at least several weeks	89		level at 504 h ([2]; plasma, 75 ug GnRHa/lamprey, after 3 weeks, microspheres injected IM): 2.9 ng/mL; level at 168 h ([2]; plasma, 75 ug GnRHa/lamprey, week 1, microspheres injected IM): 4.2 ng/mL; level at 336 h ([2]; plasma, 75 ug GnRHa/lamprey, week 2, microspheres injected IM): 3.1 ng/mL; level at 168 h ([2]; plasma, week 1, 2 mm implants injected IP): 1.6 ng/mL; level at 168 h ([2]; plasma, week 1, microspheres injected IP, 75 ug GnRHa/lamprey): 5 ng/mL; share of lampreys with detectable plasma GnRHa ([2]; week 1, injected IP, microspheres or implants): two-thirds; share of lampreys with detectable plasma GnRHa ([2]; week 1, microspheres injected IM): Ninety percent; share of lampreys with detectable plasma GnRHa ([2]; week 2, IP with microspheres and IP with implants): less than thirty percent; share of lampreys with detectable plasma GnRHa ([2]; week 2, microspheres injected IM): ninety-two percent; affinity for type-I GnRH binding site (type-I GnRH-binding site; [4]): high affinity; affinity for type-II GnRH binding site [3, 4]: high affinity
lamprey GnRH-I: native decapeptide pGlu His Tyr Ser Leu Glu Trp Lys Pro Gly-NH2 (Table 1) ([pGlu]HYSLEWKPG-NH2; SMILES CC(C)C[C@H](NC(=O)[C@H](CO)NC(=O)[C@H](Cc1ccc(O)cc1)NC(=O)[C@H](Cc1c[nH]cn1)NC(=O)[C@@H]1CCC(=O)N1)C(=O)N[C@@H](CCC(=O)O)C(=O)N[C@@H](Cc1c[nH]c2ccccc12)C(=O)N[C@@H](CCCCN)C(=O)N1CCC[C@H]1C(=O)NCC(N)=O)			delayed spawning activity						spermiation/ovulation (adult sea lampreys; adult sea lampreys): induce; steroidogenesis (adult sea lampreys; adult sea lampreys): induce
[Ac-3 Pro^1, 4-FD-Phe^3, D-Trp^3,6] mammalian GnRH					no apparent effect	no apparent effect		decrease gametogenesis	
[D-Phe^2,6, Pro^3] lamprey GnRH	inhibited	stimulated earlier spawning activity	induced earlier spawning activity			inhibited ovulation		decrease gametogenesis	plasma progesterone levels (adult sea lampreys; male sea lampreys): reduced; spermiation (adult sea lampreys; male sea lampreys): inhibited spermiation
[D-Phe^2, Gly^6]-lGnRH-I [[D-Phe^2, Gly^6]-1GnRH-I]				1.37			5650		
